# In patent US8314118B2, “Methods and compositions for treating dry eye” (priority 2009, dated 2012):
# Legend:
# Format in all cases: in vivo, Sprague-Dawley rats
# DB rats [1] = assay: Schirmer test of tear production in STZ-diabetic (DB) rats after topical treatment
# Method: (§1) Male Sprague-Dawley rats (˜245 g) were obtained from Charles River Laboratories (Wilmington, Mass.) and housed under standard laboratory conditions. All investigations conformed to the regulations of the ARVO, National Institutes of Health, and the guidelines of the Department of Comparative Medicine of The Pennsylvania State University.
# (§2) Briefly, an intraperitoneal (i.p.) injection of 40 mg/kg streptozotocin (STZ, Sigma, St. Louis, Mo.) in ice-cold 0.5 mol/l citrate buffer (pH 4.5) was administered. […] Fifteen animals not receiving STZ, but injected with citrate buffer, were considered Normal.
# Tear secretion was measured with Schirmer strips (Alcon Laboratories, Inc., Ft. Worth Tex.). […] The strip wetting length was measured to the nearest millimeter. Five minutes prior to administration of the Schirmer strip, animals received topical Proparacaine Hydrochloride Ophthalmic Solution 0.5% (Akorn, Inc., Buffalo Grove, Ill.).
# (§3) Naltrexone hydrochloride (Sigma-Aldrich, Indianapolis, Ind.) was prepared in Vigamox (moxifloxacin hydrochloride ophthalmic solution, Alcon, Inc, Ft. Worth, Tex.) at a 10^−5 M concentration. NTX was given as a single drop (0.05 ml) to the central cornea of the right eye, with the lower eyelid held away from the eye to avoid overflow.
# (§4) Insulin or vehicle was applied topically at 0800 hours.
# (§5) For body weights and glucose measurements, Student two-tailed t-tests were utilized. With Schirmer tests and aesthesiometer measurements, one-way analysis of variance with Newman-Keuls post tests was employed because measurements were conducted on a random sample of two-thirds of the rats in each group.
# DB rats [2] = assay: Corneal sensitivity by aesthesiometer in STZ-diabetic (DB) rats after topical treatment; conditions: for reduction in corneal sensitivity from Normal animals: DB NTX group
# Method: as §1, §2
# Corneal sensitivity was determined by an aesthesiometer (Cachet and Bonnet-Aesthesiometer, Boca Raton, Fla.). The values (g/mm^2) were determined directly from the protocol (and conversion table) supplied by the manufacturer.
# Measurements of sensitivity were conducted prior to the Schirmer test.
# as §3, §4, §5
# ocular surface = assay: Slit-lamp observations of the ocular surface; conditions: during and after NTX administration
# Method: To examine general overall morphology and pathology (e.g., corneal edema, scarring), observations with a hand-held slit lamp (Zeiss HSO 10 Hand Slit Lamp, Dublin, Calif.) were conducted.
# Normal rats with Dry Eye = assay: Schirmer test of tear production in Normal rats with dry eye or "wet" eye
# Method: FIG. 7. Tear production of Normal rats with Dry Eye (upper panel) and “Wet” eye (lower panel). Animals were measured at baseline, and given 1 drop of topical 10^−6 M naltrexone hydrochloride (NTX). The horizontal black line represents mean baseline for comparisons. Data are expressed as mean (SEM) for 7 rats per group at each time point except 48 hr wherein n=3 rats.
# Tear secretion was measured with Schirmer strips (Alcon Laboratories, Inc., Ft. Worth Tex.). A standard 17 mm long Schirmer strip was inserted into the lower cul-de-sac for 1 min. The strip wetting length was measured to the nearest millimeter. Five minutes prior to administration of the Schirmer strip, animals received topical Proparacaine Hydrochloride Ophthalmic Solution 0.5% (Akorn, Inc., Buffalo Grove, Ill.). Testing began 1 hour after the last drop of NTX or vehicle was administered, and continued every 24 hours thereafter.
# Sprague-Dawley rats, males of 15-22 weeks of age, were tested for dry eye and therapeutic effects of opioid antagonists. […] All of these measures used a test called the Schirmer Test, as described in Example 1 (the same test used for humans).
# [3] = Normal rats with dry eye, one drop of NTX 10^−6 M
compound,measurement,setting,value
"O=C1CC[C@@]2(O)[C@H]3Cc4ccc(O)c5c4[C@@]2(CCN3CC2CC2)[C@H]1O5 [NTX, 17-(cyclopropylmethyl)-4,5α-epoxy-3,14-dihydroxymorphinan-6-one]",reduction of tear production from Normal animals,"DB rats [1]; DB NTX group, 96 hours after termination of 1 or 5 days of NTX q.i.d.",22-59%
same,time to restoration of tear secretion,"DB rats [1]; DB rats, 1 drop of topical NTX 10^−5 M in Vigamox",≤ 1 h
same,time for which Schirmer scores were comparable to Normal rats,"DB rats [1]; DB rats, NTX q.i.d. for 1 or 5 days, from 1 hour after termination of drug exposure",at least 3 days
same,time for which tear production was similar to Normal animals,"DB rats [1]; DB rats, after 1 drop of NTX",at least 48 hours
same,duration of therapeutic effect,DB rats [1]; four drops (10^−6 M) over a twelve-hour period,at least 72 hours
same,duration of effect on dry eye,DB rats [1]; only one daily topical application,more than 2 days
same,reduction in corneal sensitivity from Normal animals,DB rats [2]; 120 hours after termination of 1 day of NTX q.i.d.,1.8 fold
same,reduction in corneal sensitivity from Normal animals,DB rats [2]; 192 hours after termination of 5 day NTX q.i.d.,1.9 fold
same,reduction in corneal sensitivity from Normal animals,DB rats [2]; 216 hours after termination of 5 day NTX q.i.d.,1.7 fold
same,time for which corneal sensitivity stayed comparable to Normal,"DB rats [2]; DB rats, 1 drop of NTX, entire period of the experiment",96 h
same,time to restoration of corneal sensitivity,"DB rats [2]; DB rats, 1 drop of topical NTX",≤ 1 h
same,time for which corneal sensitivity scores were comparable to Normal rats,"DB rats [2]; DB rats, NTX q.i.d. for 1 or 5 days, from 1 h after termination of drug exposure",at least 4 days
same,abnormalities of the ocular surface on slit-lamp examination,ocular surface,did not reveal any abnormalities
same,"change in moisture of animals with ""wet"" eye","Normal rats with Dry Eye; Normal rats with ""wet"" eye, one drop of NTX",no change in moisture
same,"persistence of ""wet"" eye",Normal rats with Dry Eye; [3],maintained at 24 and 48 hr
same,time of return to dry eye,Normal rats with Dry Eye; [3],≤ 72 h
same,time to reversal of dry eye,"Normal rats with Dry Eye; Normal rats with dry eye, one drop of NTX 10^−6 M in VIGAMOX",within an hour
same,duration of therapeutic effect,Normal rats with Dry Eye; one to two drops (10^−6 M),48 h
same,time to reversal of dry eye conditions,Normal rats with Dry Eye; one to two drops (10^−6 M),within an hour or so
"INS: Bovine insulin (Sigma-Aldrich) prepared in Vigamox, utilized at a concentration of 1 U",decrease of Schirmer score from Normal rats,"DB rats [1]; DB INS group, at 1, 24 and 48 hour time points",35-58%
same,effect on tear production,"DB rats [1]; DB rats, 1 drop of topical INS (1 U)",no effect
same,corneal sensitivity compared with Normal animals,"DB rats [2]; DB rats, 1 drop of topical INS, 1, 24 and 48 h",did not differ from the Normal animals
